The numbers were not newly measured in patent US20100179144A1, “QUINAZOLINE DERIVATIVES AS P13 KINASE INHIBITORS” (priority 2007, published 2010), which cites them from elsewhere.

SMILES strings stand for the structures.

For this series, the system named is Class I PI3-kinases. The conditions noted are these: about; Fruman et al. 1998; read-out: IC50 against each of these PI3-kinases.

As to `O=c1cc(N2CCOCC2)oc2c(-c3ccccc3)cccc12` [LY294002], the IC50 was 15 to 20 µM.
